Active and inactive are the calls of the source. No rule for the calls is given here.
System: CCRIS mutagenicity, Ames/micronucleus/aberration tests
Test: CCRIS mutagenicity studies
[1] = Test System: AMES SALMONELLA TYPHIMURIUM, Strain/Indicator: TA98, Metabolic Activation: NONE, Method: STANDARD PLATE
[2] = Test System: AMES SALMONELLA TYPHIMURIUM, Strain/Indicator: TA98, Metabolic Activation: RAT, LIVER, S-9, AROCLOR 1254, Method: STANDARD PLATE
[3] = Test System: AMES SALMONELLA TYPHIMURIUM, Strain/Indicator: TA100, Metabolic Activation: RAT, LIVER, S-9, AROCLOR 1254, Method: STANDARD PLATE
[4] = Test System: AMES SALMONELLA TYPHIMURIUM, Strain/Indicator: TA1535, Metabolic Activation: NONE, Method: STANDARD PLATE
[5] = Test System: AMES SALMONELLA TYPHIMURIUM, Strain/Indicator: TA1535, Metabolic Activation: RAT, LIVER, S-9, AROCLOR 1254, Method: STANDARD PLATE
[6] = Test System: AMES SALMONELLA TYPHIMURIUM, Strain/Indicator: TA1537, Metabolic Activation: RAT, LIVER, S-9, AROCLOR 1254, Method: STANDARD PLATE
[7] = Test System: AMES SALMONELLA TYPHIMURIUM, Strain/Indicator: TA100, Metabolic Activation: NONE, Method: STANDARD PLATE
[8] = Test System: AMES SALMONELLA TYPHIMURIUM, Strain/Indicator: TA98, Metabolic Activation: NONE, Method: PREINCUBATION

COC(=O)[C@H]1O[C@@H]1c1ccccc1
mutagenic call [1]: inactive; negative
mutagenic call [2]: inactive; negative
mutagenic call [3]: inactive; negative
mutagenic call [4]: inactive; negative
mutagenic call [5]: inactive; negative
mutagenic call (Test System: AMES SALMONELLA TYPHIMURIUM, Strain/Indicator: TA1537, Metabolic Activation: NONE, Method: STANDARD PLATE): inactive; negative
mutagenic call [6]: inactive; negative
mutagenic call (Test System: AMES SALMONELLA TYPHIMURIUM, Strain/Indicator: TA1538, Metabolic Activation: NONE, Method: STANDARD PLATE): inactive; negative
mutagenic call (Test System: AMES SALMONELLA TYPHIMURIUM, Strain/Indicator: TA1538, Metabolic Activation: RAT, LIVER, S-9, AROCLOR 1254, Method: STANDARD PLATE): inactive; negative

C1CCCCCC2OC2CCCC1 (centres undefined)
mutagenic call [7]: inactive; negative
mutagenic call [3]: inactive; negative
mutagenic call [4]: inactive; negative
mutagenic call [5]: inactive; negative
mutagenic call (Test System: UDS RAT HEPATOCYTES, Strain/Indicator: THY INCORP, Metabolic Activation: NONE): inactive; negative

C=C(C)C1CO1 (centres undefined)
mutagenic call [1]: inactive; negative
mutagenic call [7]: inactive; negative

O=[N+]([O-])c1cccc2nc3cccc([N+](=O)[O-])c3nc12
mutagenic call (Test System: AMES SALMONELLA TYPHIMURIUM, Strain/Indicator: TA98(NR), Metabolic Activation: NONE, Method: PREINCUBATION): active; positive
mutagenic call [8]: active; positive

CC1=C[C@@H]2c3cccc4[nH]cc(c34)C[C@H]2N(C)C1
mutagenic call [2]: active; positive
mutagenic call [7]: inactive; negative
mutagenic call [3]: active; positive
mutagenic call [6]: inactive; negative

O=[N+]([O-])c1ccc(Cl)cc1Cl
mutagenic call (End Point: IN VITRO CHROMOSOMAL ABERRATIONS, Test System: CHL CELLS, Metabolic Activation: RAT, LIVER, S-9, SODIUM PHENOBARBITAL AND 5,6-BENZOFLAVONE): active; positive (structural changes); authors report equivocal results for ploidy chang
mutagenic call [8]: inactive; negative
mutagenic call (Test System: AMES SALMONELLA TYPHIMURIUM, Strain/Indicator: TA98, Metabolic Activation: RAT, LIVER, S-9, KANECHLOR 500, Method: PREINCUBATION): inactive; negative
mutagenic call (Test System: AMES SALMONELLA TYPHIMURIUM, Strain/Indicator: TA100, Metabolic Activation: NONE, Method: PREINCUBATION): active; positive
mutagenic call [7]: inactive; negative
mutagenic call (Test System: AMES SALMONELLA TYPHIMURIUM, Strain/Indicator: TA100, Metabolic Activation: RAT LIVER S-9, PHENOBARBITAL AND BETA-NAPHTHOFLAVONE, Method: PREINCUBATION): active; positive
mutagenic call (Test System: AMES SALMONELLA TYPHIMURIUM, Strain/Indicator: TA100, Metabolic Activation: RAT, LIVER, S-9, KANECHLOR 500, Method: PREINCUBATION): active; positive
mutagenic call (Test System: AMES SALMONELLA TYPHIMURIUM, Strain/Indicator: TA1535, Metabolic Activation: RAT LIVER S-9, PHENOBARBITAL AND BETA-NAPHTHOFLAVONE, Method: PREINCUBATION): inactive; negative
mutagenic call (Test System: AMES SALMONELLA TYPHIMURIUM, Strain/Indicator: TA1537, Metabolic Activation: RAT LIVER S-9, PHENOBARBITAL AND BETA-NAPHTHOFLAVONE, Method: PREINCUBATION): inactive; negative
mutagenic call (Test System: E.COLI, Strain/Indicator: WP2UVRA, Metabolic Activation: NONE, Method: PREINCUBATION): inactive; negative
mutagenic call (Test System: E.COLI, Strain/Indicator: WP2UVRA, Metabolic Activation: RAT LIVER S-9, PHENOBARBITAL AND BETA-NAPHTHOFLAVONE, Method: PREINCUBATION): inactive; negative

Cc1ccc2c3c(cc4ccccc4c13)-c1ccccc1-2
mutagenic call (Test System: AMES SALMONELLA TYPHIMURIUM, Strain/Indicator: TA100, Metabolic Activation: RAT, LIVER, S-9, AROCLOR 1254): active; positive

From PubChem BioAssay AID1259407 (Chemical Carcinogenesis Research Information System (CCRIS), 2018)
